19 molecules from US20190194209A1, “PYRAZOLE CARBOXAMIDE COMPOUNDS AND METHODS OF USE” (Genentech, Inc., priority 2014, published 2019) can be followed below.

For the assay, the target named is T1, full length human wildtype Btk (Homo sapiens, UniProt Q06187).
T1 construct: V5 (C); 6xHis (C); made in house; host or cells: Sf9 cells (baculovirus, pFastBac)
T1 sequence (Q06187 whole entry): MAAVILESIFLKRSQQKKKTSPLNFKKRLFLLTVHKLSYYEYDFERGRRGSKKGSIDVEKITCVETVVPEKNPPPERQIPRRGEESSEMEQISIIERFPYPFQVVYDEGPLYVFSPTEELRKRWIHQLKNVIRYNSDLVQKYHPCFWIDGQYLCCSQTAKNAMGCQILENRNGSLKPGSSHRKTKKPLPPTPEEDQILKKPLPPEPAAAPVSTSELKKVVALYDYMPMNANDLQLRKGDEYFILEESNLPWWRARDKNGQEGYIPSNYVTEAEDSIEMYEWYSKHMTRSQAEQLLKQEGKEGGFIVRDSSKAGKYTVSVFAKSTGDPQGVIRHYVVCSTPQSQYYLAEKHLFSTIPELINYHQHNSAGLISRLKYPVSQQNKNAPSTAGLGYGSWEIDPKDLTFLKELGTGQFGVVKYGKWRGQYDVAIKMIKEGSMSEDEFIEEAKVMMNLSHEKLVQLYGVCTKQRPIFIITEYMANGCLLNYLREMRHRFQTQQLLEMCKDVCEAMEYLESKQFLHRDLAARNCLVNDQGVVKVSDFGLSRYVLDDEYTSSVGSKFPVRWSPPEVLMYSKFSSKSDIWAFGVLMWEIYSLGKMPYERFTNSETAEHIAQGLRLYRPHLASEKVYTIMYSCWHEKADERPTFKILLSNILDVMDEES
Description: Biochemical Btk Kinase Assay (Example 901). To be noted: read-out: BTK LC3K (Ki). Here is the method: Formula I compounds were tested by a standard biochemical Btk, Kinase Assay (Example 901). A generalized procedure for a standard biochemical Btk, Kinase Assay that can be used to test Formula I compounds is as follows. A master mix minus Btk enzyme is prepared containing 1× Cell Signaling kinase buffer (25 mM Tris-HCl, pH 7.5, 5 mM beta-glycerophosphate, 2 mM dithiothreitol, 0.1 mM Na3VO4, 10 mM MgCl2), 0.5 μM Promega PTK Biotinylated peptide substrate 2, and 0.01% BSA. A master mix plus Btk enzyme is prepared containing 1× Cell Signaling kinase buffer, 0.5 μM (micromolar) PTK Biotinylated peptide substrate 2, 0.01% BSA, and 100 ng/well (0.06 mU/well) Btk enzyme. Btk enzyme is prepared as follows: full length human wildtype Btk (accession number NM-000061) with a C-terminal V5 and 6×His tag was subcloned into pFastBac® vector (Invitrogen/Life Technologies) for making baculovirus carrying this epitope-tagged Btk. Generation of baculovirus is done based on Invitrogen's instructions detailed in its published protocol “Bac-to-Bac Baculovirus Expression Systems” (Invitrogen/Life Technologies, Cat. Nos. 10359-016 and 10608-016). Passage 3 virus is used to infect Sf9 cells to overexpress the recombinant Btk protein. The Btk protein is then purified to homogeneity using Ni-NTA column. The purity of the final protein preparation is greater than 95% based on the sensitive Sypro-Ruby staining. A solution of 200 μM ATP is prepared in water and adjusted to pH 7.4 with 1N NaOH. A quantity of 1.25 μL (microliter) of compounds in 5% DMSO is transferred to a 96-well 2 area Costar polystyrene plate. Compounds are tested singly and with an 11-point dose-responsive curve (starting concentration is 10 μM; 1:2 dilution). A quantity of 18.75 μL of master mix minus enzyme (as a negative control) and master mix plus enzyme is transferred to appropriate wells in 96-well 2 area costar polystyrene plate. 5 μL of 200 μM ATP is added to that mixture in the 96-well 2 area Costar polystyrene plate for final ATP concentration of 40 μM. The reaction is allowed to incubate for 1 hour at room temperature. The reaction is stopped with Perkin Elmer 1× detection buffer containing 30 mM EDTA, 20 nM SA-APC, and 1 nM PT66 Ab. The plate is read using time-resolved fluorescence with a Perkin Elmer Envision using excitation filter 330 nm, emission filter 665 nm, and 2nd emission filter 615 nm. IC50 values are subsequently calculated. Alternatively, the Lanthascreen assay can be used to evaluate Btk activity through quantification of its phosphorylated peptide product. The FRET (Fluorescence Resonance Energy Transfer) that occurs between the fluorescein on the peptide product and the terbium on the detection antibody decreases with the addition of inhibitors of Btk that reduce the phosphorylation of the peptide. In a final reaction volume of 25 μL (microliters), Btk (h) (0.1 ng/25 μl reaction) is incubated with 50 mM Hepes pH 7.5, 10 mM MgCl2, 2 mM MnCl2, 2 mM DTT, 0.2 mM NaVO4, 0.01% BSA, and 0.4 uM fluorescein poly-GAT. The reaction is initiated by the addition of ATP to 25 μM (micromolar) the Km of ATP. After incubation for 60 minutes at room temperature, the reaction is stopped by the addition of a final concentration of 2 nM Tb-PY20 detection antibody in 60 mM EDTA for 30 minutes at room temperature. Detection is determined on a Perkin Elmer Envision with 340 nm excitation and emission at 495 nm and 520 nm. Exemplary Btk inhibition […] values are in Table 1.
The Ki is the dissociation constant of the complex between target and ligand, obtained from inhibition or displacement. For `CN1CCN(c2ccc(-c3nn(-c4ccnc(-n5ncc6cc(C(C)(C)C)cc(F)c6c5=O)c4CO)cc3C(N)=O)cn2)CC1` [Example 135, 1-[2-(6-tert-butyl-8-fluoro-1-oxo-phthalazin-2-yl)-3-(hydroxymethyl)-4-pyridyl]-3-[6-(4-methylpiperazin-1-yl)-3-pyridyl]pyrazole-4-carboxamide], the Ki came to 15.6 nM.
For the molecule `CCCC(=O)Nc1nn(-c2ccnc(N3CCn4c(cc5c4CC(C)(C)C5)C3=O)c2CO)cc1C(N)=O` [Example 128, 3-(butanoylamino)-1-[2-(7,7-dimethyl-4-oxo-1,2,6,8-tetrahydrocyclopenta[3,4]pyrrolo[3,5-b]pyrazin-3-yl)-3-(hydroxymethyl)-4-pyridyl]pyrazole-4-carboxamide], the Ki was determined as 33.9 nM.
Turning to `CC(C)(C)c1cc(F)c2c(=O)n(-c3nccc(-n4cc(C(N)=O)c(-c5cnc6[nH]ccc6c5)n4)c3CO)ncc2c1` [Example 132, 1-[2-(6-tert-butyl-8-fluoro-1-oxo-phthalazin-2-yl)-3-(hydroxymethyl)-4-pyridyl]-3-(1H-pyrrolo[2,3-b]pyridin-5-yl)pyrazole-4-carboxamide], the Ki was > 500 nM.
Take `CN1CCN(c2cc(-c3nn(-c4ccnc(-n5ncc6cc(C(C)(C)C)cc(F)c6c5=O)c4CO)cc3C(N)=O)ccn2)CC1` [Example 136, 1-[2-(6-tert-butyl-8-fluoro-1-oxo-phthalazin-2-yl)-3-(hydroxymethyl)-4-pyridyl]-3-[2-(4-methylpiperazin-1-yl)-4-pyridyl]pyrazole-4-carboxamide]: the Ki is 50.7 nM.
In the case of `CC1(C)Cc2cc3n(c2C1)CCN(c1nccc(-n2cc(C(N)=O)cn2)c1CO)C3=O` [Example 113, 1-[2-(7,7-dimethyl-4-oxo-1,2,6,8-tetrahydrocyclopenta[3,4]pyrrolo[3,5-b]pyrazin-3-yl)-3-(hydroxymethyl)-4-pyridyl]pyrazole-4-carboxamide], the Ki amounted to 124 nM.
Take `CC(=O)Nc1nn(-c2ccnc(N3CCn4c(cc5c4CC(C)(C)C5)C3=O)c2CO)cc1C(N)=O` [Example 124, 3-acetamido-1-[2-(7,7-dimethyl-4-oxo-1,2,6,8-tetrahydrocyclopenta[3,4]pyrrolo[3,5-b]pyrazin-3-yl)-3-(hydroxymethyl)-4-pyridyl]pyrazole-4-carboxamide]: the Ki was found to be 13.8 nM.
As for `CC(C)(C)c1cc(F)c2c(=O)n(-c3nccc(-n4cc(C(N)=O)c(-c5ccc(O)nc5)n4)c3CO)ncc2c1` [Example 138, 1-[2-(6-tert-butyl-8-fluoro-1-oxo-phthalazin-2-yl)-3-(hydroxymethyl)-4-pyridyl]-3-(6-hydroxy-3-pyridyl)pyrazole-4-carboxamide], the figure is 82.7 nM; as for `CC(C)(C)c1cc(F)c2c(=O)n(-c3nccc(-n4cc(C(N)=O)c(-c5ccc(CO)cc5)n4)c3CO)ncc2c1` [Example 141, 1-[2-(6-tert-butyl-8-fluoro-1-oxo-phthalazin-2-yl)-3-(hydroxymethyl)-4-pyridyl]-3-[4-(hydroxymethyl)phenyl]pyrazole-4-carboxamide], 155 nM.
Then `C[C@H]1CN(C2COC2)CCN1c1ccc(Nc2nn(-c3ccnc(N4CCn5c(cc6c5CC(C)(C)C6)C4=O)c3CO)cc2C(N)=O)nc1` [Example 125, 1-[2-(7,7-dimethyl-4-oxo-1,2,6,8-tetrahydrocyclopenta[3,4]pyrrolo[3,5-b]pyrazin-3-yl)-3-(hydroxymethyl)-4-pyridyl]-3-[[5-[(2S)-2-methyl-4-(oxetan-3-yl)piperazin-1-yl]-2-pyridyl]amino]pyrazole-4-carboxamide], with 0.296 nM; and `CC(C)(C)c1cc(F)c2c(=O)n(-c3nccc(-n4cc(C(N)=O)c(-c5ccncc5)n4)c3CO)ncc2c1` [Example 143, 1-[2-(6-tert-butyl-8-fluoro-1-oxo-phthalazin-2-yl)-3-(hydroxymethyl)-4-pyridyl]-3-(4-pyridyl)pyrazole-4-carboxamide], with 100 nM; and `CC(C)(C)c1cc(F)c2c(=O)n(-c3nccc(-n4cc(C(N)=O)c(-c5ccc(CN)cc5)n4)c3CO)ncc2c1` [Example 133, 3-[4-(aminomethyl)phenyl]-1-[2-(6-tert-butyl-8-fluoro-1-oxo-phthalazin-2-yl)-3-(hydroxymethyl)-4-pyridyl]pyrazole-4-carboxamide], with 156 nM.
Then `CC(C)(C)c1cc(F)c2c(=O)n(-c3nccc(-n4cc(C(N)=O)c(-c5ccccc5)n4)c3CO)ncc2c1` [Example 114, 1-[2-(6-tert-butyl-8-fluoro-1-oxo-phthalazin-2-yl)-3-(hydroxymethyl)-4-pyridyl]-3-phenyl-pyrazole-4-carboxamide], with 184 nM; and `CN1CCN(C(=O)c2ccc(-c3nn(-c4ccnc(-n5ncc6cc(C(C)(C)C)cc(F)c6c5=O)c4CO)cc3C(N)=O)cc2)CC1` [Example 131, 1-[2-(6-tert-butyl-8-fluoro-1-oxo-phthalazin-2-yl)-3-(hydroxymethyl)-4-pyridyl]-3-[4-(4-methylpiperazine-1-carbonyl)phenyl]pyrazole-4-carboxamide], with 143 nM; and `CC(C)(C)c1cc(F)c2c(=O)n(-c3nccc(-n4cc(C(N)=O)c(-c5cnc(N)cn5)n4)c3CO)ncc2c1` [Example 129, 3-(5-aminopyrazin-2-yl)-1-[2-(6-tert-butyl-8-fluoro-1-oxo-phthalazin-2-yl)-3-(hydroxymethyl)-4-pyridyl]pyrazole-4-carboxamide], with 104 nM.
For `CC(C)Cn1cc(-c2nn(-c3ccnc(-n4ncc5cc(C(C)(C)C)cc(F)c5c4=O)c3CO)cc2C(N)=O)cn1` [Example 134, 1-[2-(6-tert-butyl-8-fluoro-1-oxo-phthalazin-2-yl)-3-(hydroxymethyl)-4-pyridyl]-3-(1-isobutylpyrazol-4-yl)pyrazole-4-carboxamide], the Ki is 26.9 nM.
As for `CC(C)(C)c1cc(F)c2c(=O)n(-c3nccc(-n4cc(C(N)=O)c(-c5cncc(S(C)(=O)=O)c5)n4)c3CO)ncc2c1` [Example 139, 1-[2-(6-tert-butyl-8-fluoro-1-oxo-phthalazin-2-yl)-3-(hydroxymethyl)-4-pyridyl]-3-(5-methylsulfonyl-3-pyridyl)pyrazole-4-carboxamide], the figure is > 500 nM.
Turning to `CC(C)(C)c1cc(F)c2c(=O)n(-c3nccc(-n4cc(C(N)=O)c(-c5cnc6ccccc6c5)n4)c3CO)ncc2c1` [Example 140, 1-[2-(6-tert-butyl-8-fluoro-1-oxo-phthalazin-2-yl)-3-(hydroxymethyl)-4-pyridyl]-3-(3-quinolyl)pyrazole-4-carboxamide], the Ki was > 500 nM.
For the molecule `CC(=O)Nc1ccc(-c2nn(-c3ccnc(-n4ncc5cc(C(C)(C)C)cc(F)c5c4=O)c3CO)cc2C(N)=O)cn1` [Example 137, 3-(6-acetamido-3-pyridyl)-1-[2-(6-tert-butyl-8-fluoro-1-oxo-phthalazin-2-yl)-3-(hydroxymethyl)-4-pyridyl]pyrazole-4-carboxamide], the Ki came out at 115 nM.
On to `CN(C)CCNC(=O)c1cccc(-c2nn(-c3ccnc(-n4ncc5cc(C(C)(C)C)cc(F)c5c4=O)c3CO)cc2C(N)=O)c1` [Example 130, 1-[2-(6-tert-butyl-8-fluoro-1-oxo-phthalazin-2-yl)-3-(hydroxymethyl)-4-pyridyl]-3-[3-[2-(dimethylamino)ethylcarbamoyl]phenyl]pyrazole-4-carboxamide], for which the Ki was determined as 43.8 nM.
